Results taken from publication PMC2685384, “Binding characteristics of the ovine membrane progesterone receptor alpha and expression of the receptor during the estrous cycle” (Reproductive Biology and Endocrinology : RB&E, 2009).
pIC50, pKd: −log10 of the molar value. Like-named read-outs stand apart in the source and are kept apart here. One block for each compound: values may come before it.

Legend:
[1] = target: T1, ovine membrane progesterone receptor alpha (mPRα) (Ovis aries, UniProt A0ACI6Q1G6); experiment: radioligand competition against 3H-progesterone on mPRα-CHO membranes; type: binding
T1 construct: gene PAQR7; ovine mPRα expressed in CHO cells; digitonin-treated crude membrane fractions
T1 sequence (A0ACI6Q1G6 1-350): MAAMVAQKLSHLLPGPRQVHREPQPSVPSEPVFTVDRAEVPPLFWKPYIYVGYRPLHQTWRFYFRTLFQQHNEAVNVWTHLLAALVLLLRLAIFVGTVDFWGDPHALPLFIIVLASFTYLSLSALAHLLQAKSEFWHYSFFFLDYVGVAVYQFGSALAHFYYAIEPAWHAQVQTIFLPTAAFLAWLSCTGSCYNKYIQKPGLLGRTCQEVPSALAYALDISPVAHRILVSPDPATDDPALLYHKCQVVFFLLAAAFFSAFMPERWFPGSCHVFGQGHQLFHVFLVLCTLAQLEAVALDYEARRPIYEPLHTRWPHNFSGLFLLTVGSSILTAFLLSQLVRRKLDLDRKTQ

[2] = target: T1, ovine membrane progesterone receptor alpha (mPRα); experiment: 3H-progesterone saturation binding on membranes of stable mPRα-CHO cells (also competition, IC50 =[…])

SMILES: C[C@H](O)[C@H]1CC[C@H]2[C@@H]3CCC4=CC(=O)CC[C@]4(C)[C@H]3CC[C@]12C [20-OH-P4, 20α-hydroxyprogesterone]
pIC50 [1]: 6.53

SMILES: CC(=O)[C@H]1CC[C@H]2[C@@H]3CCC4=CC(=O)CC[C@]4(C)[C@H]3CC[C@]12C [P4, progesterone]
pKd [2]: 6.91

pIC50 ([1]; read-out: IC50): 6.13
SMILES: CC(=O)[C@@]1(O)CC[C@H]2[C@@H]3CCC4=CC(=O)CC[C@]4(C)[C@H]3CC[C@@]21C [17-OH-P4, 17α-hydroxyprogesterone]
